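Step 1: Grow cells in 96-well plates. Step 2: Expose to compound for 48 hours at 5 concentrations. Step 3: Interpolate endpoints linearly; if unreached, use highest concentration. GI50 = concentration required for 50% inhibition of growth. The concentration for full growth arrest is given as TGI.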
Experiments:
Test in all cases: NCI-60 cell line screen, 48 h
[1] = system: ACHN renal
[2] = system: HCT-15 colon
[3] = system: LOX IMVI melanoma
[4] = system: MDA-MB-435
[5] = system: OVCAR-4 ovarian
[6] = system: SK-MEL-28 melanoma
[7] = system: SNB-75 CNS
[8] = system: SW-620 colon
[9] = system: TK-10 renal
[10] = system: U251 CNS

Structure (SMILES)	GI50 [1] [µM]	TGI [1] [µM]	GI50 [2] [µM]	TGI [2] [µM]	GI50 [3] [µM]	TGI [3] [µM]	GI50 [4] [µM]	TGI [4] [µM]	GI50 [5] [µM]	TGI [5] [µM]	GI50 [6] [µM]	TGI [6] [µM]	GI50 [7] [µM]	TGI [7] [µM]	GI50 [8] [µM]	TGI [8] [µM]	GI50 [9] [µM]	TGI [9] [µM]	GI50 [10] [µM]	TGI [10] [µM]
O=c1[nH]c2nc(NC3CCOCC3)ncc2cc1Oc1ccc(F)cc1F	> 25	> 25	> 25	> 25	> 25	> 25	> 25	> 25	> 25	> 25	> 25	> 25	> 8.27	> 25	> 25	> 25	> 25	> 25	> 25	> 25
Cc1nn2c(/C=C3/C(=O)Nc4cc(Cl)ccc43)c(-c3ccccc3)nc2s1	1.54	3.08	4.79	> 100	2.41	6.02	3.72	> 100	1.59	3.39			1.6	8.44	3	> 100	2.34	4.14	2.68	8.5
Cn1cc(-c2ccc3nnc(Sc4ccc5ncccc5c4)n3n2)cn1	54.1	> 100	> 100	> 100	57.8	> 100	> 100	> 100	> 100	> 100	> 100	> 100	26.1	> 100	> 100	> 100	40.7	> 100	28.5	> 100
CCCCCC[C@H](C)Nc1nc2ccccc2c2occc12	11.7	23.9	10.1	22	8.61	21.4	14.7	35.2			21.2	47.2	14.8	30.5	5.46	22.2	6.46	20.9	9.94	21.7
Cc1nc2c(n1C)C(=O)c1ccccc1C2=O	> 100	> 100	53.6	> 100	38.5	> 100	48.1	> 100	43.5	> 100	> 100	> 100	> 100	> 100	52	> 100	> 100	> 100	63.9	> 100
O=C1/C(=C/c2ccccc2)CN(C(=O)CCN2CCCC2)C/C1=C\c1ccccc1		4.78		3.97		1.85		3.24		4.78		3.38		13.5		0.511		8.62		2.51
O=C(NCCc1ccccn1)OCc1nc2nc(Cl)nc(N3CCOCC3)c2[nH]1	1.29	2.55	1.74	5.17	0.372	1.61	1.33	2.78	1.7	3.85	1.67	3.32	2.42	15.5	1.7	4.25	1.94	4	3.39	12.2
O=c1/c(=C\c2ccc(F)cc2)sc2n1C(c1ccc(F)cc1)C1=C(N=2)c2ccc3ccccc3c2OCC1 (configuration not stated)	> 100	> 100	7.17	> 100	> 100	> 100	> 100	> 100	> 100	> 100	> 100	> 100	> 100	> 100	> 100	> 100	> 100	> 100	> 100	> 100
COC(=O)C1=C(C(=O)OC)C2(C)C=CC1O2 (configuration not stated)		18.7		29.7		34.5		33.2		27.2		29.5		66.2		17.2		8.24		31.9
Cc1c(-c2ccnc(N)n2)c2c(n1Cc1ccccc1)C(=O)c1ccccc1C2=O	8.34	36.8	4.8	> 100	1.98	6.65	4.84	24.2	20.7	> 100	17.3	> 100			6.82	> 100	17.3	66.8	3.91	36.2
COc1cc(NC(=O)CCSc2nc3ccc(C)cc3c(=O)n2Cc2ccccc2)cc(OC)c1OC	3.72	34.9	> 100	> 100	6.4	> 100	> 100	> 100	3.95	> 100	6.3	> 100	1.9	4.78	> 100	> 100	7.43	28.4	7.06	63.1
O=c1cc(N/N=C/c2ccc(F)cc2)c2cc(Cl)ccc2[nH]1	17.2	72.1	19.9	> 100	25.3	> 100	13.4	> 100			19.8	> 100	12.7	83.1	26.8	> 100	47.1	> 100	21.1	98.4
c1ccc2c(c1)SCCCSCCSCCCS2				> 100		> 100		> 100		> 100		> 100		> 100		> 100		> 100		> 100
COc1ccc(C(=O)NNc2nc(Cl)nc(N3CCN(C(c4ccccc4)c4ccccc4)CC3)n2)cc1	1.76	3.16			1.63	3.05	3.58	13	1.81	3.56	1.84	3.76	1.65	3.49			> 100	> 100	1.8	3.34
